Reference: ChEMBL document CHEMBL1201862, “PubChem BioAssay data set” (2004)
Active and inactive are the calls of the source.

Columns and labels:
Beta-galactosidase = Beta-galactosidase (Escherichia coli, UniProt Q8VNN2); assay: PubChem AID 485352; format: functional
[1] = Luminescence Cell-Based Dose Retest to Confirm Inhibitors of Cancer Stem Cells. [Related pubchem assays (depositor defined):AID2717, AID2721]; format: functional; settings: Homo sapiens
[2] = Shn3 3'UTR reporter inhibitors, dose response, cell-based, Clone20 osteoblasts, firefly luciferase, cherry-picked (AID 624132); format: functional;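 also: firefly luciferase luminescence from reporter carrying the Shn3 3'UTR in osteoblasts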
[3] = target: Heat shock protein HSP 90-alpha (Homo sapiens, UniProt P07900); format: functional, organism-based
CHO = assay: cytotoxicity in TLR9-MyD88 CHO cells, dose response, cytotoxicity control for TLR9-MyD88 binding inhibitor project, cell-based, luminescence (AID 588339); format: functional, hamster; settings: Cricetulus griseus;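 also: CHO cells stably coexpressing TLR9 and MyD88 fusions from primary screen; compound exposure lasted 48 hours before viability readout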
[4] = target: T1, Type-1 angiotensin II receptor (Homo sapiens, UniProt P30556); assay: AT1 receptor antagonists, dose response, selectivity assay for APJ receptor antagonist project, cell-based, uHTS hits (AID 463214); format: functional;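 also: antagonist potency against angiotensin II stimulated AT1 response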
T1 sequence (P30556 whole entry): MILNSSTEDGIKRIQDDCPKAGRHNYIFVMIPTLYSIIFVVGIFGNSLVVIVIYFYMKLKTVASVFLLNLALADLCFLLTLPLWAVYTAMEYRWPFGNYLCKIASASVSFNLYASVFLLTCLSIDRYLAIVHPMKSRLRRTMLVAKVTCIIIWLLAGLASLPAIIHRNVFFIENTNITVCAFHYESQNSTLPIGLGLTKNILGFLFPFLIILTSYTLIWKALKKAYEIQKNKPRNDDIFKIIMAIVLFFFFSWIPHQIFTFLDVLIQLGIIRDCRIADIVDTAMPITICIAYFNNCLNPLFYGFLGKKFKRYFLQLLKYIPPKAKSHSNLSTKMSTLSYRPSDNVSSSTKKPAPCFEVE

[5] = Luminescence Cell-Based Dose Response HTS to Identify Inhibitors of 5'UTR Stem-Loop Driven Prion Protein mRNA Translation in H4 Neuroglioblastoma Cells. [Related pubchem assays: 1827 (Project Summary), 1813 (Primary HTS)]; format: functional
[6] = control 3'UTR Renilla luciferase suppression, dose response, counter-screen for Shn3 inhibitor project, cell-based, Clone20-Shn3RL, cherry-picked (AID 624133); format: functional
Beta Lactamase = Beta Lactamase (Pseudomonas aeruginosa, UniProt Q932Y6); assay: beta-lactamase reporter inhibitor potency, dose response, artefact control for TLR9-MyD88 binding inhibitor project, BLA reporter cells, FRET fluorescence (AID 588341); format: cell-based;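 also: cell based assay in CHO-K1 cells stably expressing beta-lactamase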
Sequence of Beta Lactamase (Q932Y6 whole entry): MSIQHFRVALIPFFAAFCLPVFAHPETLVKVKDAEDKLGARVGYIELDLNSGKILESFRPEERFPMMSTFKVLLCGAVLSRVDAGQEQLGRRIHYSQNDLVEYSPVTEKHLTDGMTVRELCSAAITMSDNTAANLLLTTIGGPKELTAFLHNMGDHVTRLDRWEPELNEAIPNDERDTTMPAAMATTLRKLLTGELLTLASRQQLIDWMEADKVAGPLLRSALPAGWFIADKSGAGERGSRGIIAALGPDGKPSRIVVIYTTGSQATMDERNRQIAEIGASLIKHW

[7] = HepG2 cell cytotoxicity, dose response, cytotoxicity control for Shn3 inhibitor project, CellTiter-Glo, cherry-picked (AID 624134); format: functional, cell-based
[8] = inhibitors of firefly luciferase expression or activity, dose response, H4 neuroglioma cells, luminescence (AID 1990); format: functional, cell-based
[9] = inhibitors of SNCA 5'UTR-driven reporter translation, confirmation, H4 neuroglioma cells, luminescence (AID 1988); format: functional, cell-based
INS1 = assay: beta cell apoptosis inhibitors, cytokine rescue, dose response, luminescence, retest (AID 449756); format: functional, cell-based; settings: Rattus norvegicus;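 also: cell death triggered by IL-1 beta plus TNF-alpha plus IFN-gamma mixture; protective hits raise ATP signal compared with cytokine alone wells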
[10] = target: T2, Endoribonuclease toxin MazF (Escherichia coli K-12, UniProt P0AE70); assay: MazF toxin RNase activators, dose response, biochemical, fluorescence, single-stranded RNA substrate, uHTS hits (AID 588481); format: functional
T2 sequence (P0AE70 whole entry): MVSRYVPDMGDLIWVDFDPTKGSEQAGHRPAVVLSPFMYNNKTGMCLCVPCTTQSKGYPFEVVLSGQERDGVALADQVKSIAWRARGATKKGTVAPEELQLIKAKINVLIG

[11] = target: T2, Endoribonuclease toxin MazF; assay: SAR analysis of small molecule activators of the MazEF TA System via a fluorescence-based single-stranded RNase assay counterscreen. [Related pubchem assays (depositor defined):AID504720, AID504743]; format: functional
[12] = target: T2, Endoribonuclease toxin MazF; assay: MazF endoribonuclease activators, SAR follow-up, biochemical, fluorescence, single-stranded RNA substrate (AID 588603); format: functional
[13] = target: T2, Endoribonuclease toxin MazF; assay: fluorescent RNA oligo signal without MazF, dose response, counter-screen for MazEF activator project, biochemical, fluorescence, single-stranded RNase substrate (AID 588502); format: functional
MEF = assay: SAR analysis of small molecule cytotoxicity of MazEF TA System activators in embryonic fibroblast (MEF) cells. [Related pubchem assays (depositor defined):AID504720, AID504743]; format: functional; settings: Mus musculus

Sequence of Beta-galactosidase (Q8VNN2 whole entry): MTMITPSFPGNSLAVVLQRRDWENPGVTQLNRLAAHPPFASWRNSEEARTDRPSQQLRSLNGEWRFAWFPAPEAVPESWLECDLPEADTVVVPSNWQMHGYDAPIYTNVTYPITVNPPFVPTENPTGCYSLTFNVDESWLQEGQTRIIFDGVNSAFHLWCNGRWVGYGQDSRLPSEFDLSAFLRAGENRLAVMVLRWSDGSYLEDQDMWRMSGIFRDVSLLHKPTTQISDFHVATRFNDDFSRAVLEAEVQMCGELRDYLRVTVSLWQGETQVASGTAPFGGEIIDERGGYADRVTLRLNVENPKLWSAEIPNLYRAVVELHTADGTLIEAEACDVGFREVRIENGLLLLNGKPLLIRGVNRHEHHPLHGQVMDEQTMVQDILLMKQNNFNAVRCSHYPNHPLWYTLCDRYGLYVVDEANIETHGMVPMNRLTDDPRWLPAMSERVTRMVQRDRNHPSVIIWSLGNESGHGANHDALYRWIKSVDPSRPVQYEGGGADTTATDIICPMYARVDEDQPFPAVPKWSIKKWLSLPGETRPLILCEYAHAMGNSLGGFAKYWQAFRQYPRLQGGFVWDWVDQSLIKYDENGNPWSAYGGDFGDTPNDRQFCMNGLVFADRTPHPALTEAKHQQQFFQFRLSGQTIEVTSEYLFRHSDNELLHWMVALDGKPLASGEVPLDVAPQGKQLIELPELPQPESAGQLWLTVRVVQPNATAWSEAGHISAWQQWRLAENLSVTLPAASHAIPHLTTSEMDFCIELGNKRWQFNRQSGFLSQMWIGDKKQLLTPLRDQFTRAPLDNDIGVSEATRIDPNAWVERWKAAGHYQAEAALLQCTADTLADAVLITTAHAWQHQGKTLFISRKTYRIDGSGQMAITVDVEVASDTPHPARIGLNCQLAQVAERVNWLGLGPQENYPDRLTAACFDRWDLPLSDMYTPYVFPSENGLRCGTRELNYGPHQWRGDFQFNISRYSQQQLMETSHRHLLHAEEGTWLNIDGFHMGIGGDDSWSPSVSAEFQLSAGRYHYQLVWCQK

## COc1ccc(OC)c(NC(=O)c2nc(S(=O)(=O)Cc3ccccc3)ncc2Cl)c1
Beta-galactosidase
  EC50: > 40 µM (inactive)
[1]
  AC50: 3.48 µM (active)
[2]
  AC50: 2.08 µM (active)
[3]
  AC50: 2.95 µM (active)
CHO
  IC50: 1.05 µM (active)
[4]
  IC50: 5.87 µM (active)
[5]
  EC50: > 120 µM (not active)
[6]
  AC50: 3.79 µM (active)
Beta Lactamase
  IC50: 6.72 µM (active)
[7]
  AC50: 13.7 µM (active)
[8]
  EC50: 12.2 µM (active)
[9]
  EC50: 11.6 µM (active)
INS1
  AC50: 5.38 µM (active)

## Cc1ccc2nc(NCCc3ccc(Cl)cc3)c3nncn3c2c1
[10]
  EC50: 33.1 µM (inactive)
[11]
  EC50: > 99 µM (inactive)
[12]
  EC50: 17.7 µM (active)
[13]
  EC50: > 99 µM (inactive)
MEF
  CC50: > 99 µM (inactive)
